Measurements published in patent publication US20230405031A1, “METHODS AND COMPOSITIONS RELATED TO RECEPTOR-MEDIATED GLUCOSE SENSING” (Ohio State Innovation Foundation, priority 2020, published 2023).

Tests used:
ERK2 phosphorylation = ERK2 phosphorylation in gastrocnemius after intramuscular injection of STR ligands; assay type: in vivo; details: intra-muscular injection, anesthetized mice after overnight fast, WT vs T1R2-KO, vs vehicle in contralateral muscle
Method: FIGS. 8A-8E show STR signaling involves ERK2 and SIRT1 activation. (8A) ERK1/2 phosphorylation in gastrocnemius from fed mice. Quantitation includes both ERK1 and ERK2 bands (n=6/group). (8B-8C) ERK2 phosphorylation in response to bilateral intramuscular injection of either sucralose or 3-OMG (right gastroc) or vehicle (left gastroc) in anesthetized mice after an overnight fast (n=8/group). (8D) NAD levels in C2C12 cells culture in high (black dots) or low (blue dots) glucose for 54 h. In select cells, equal molarity (20 mM) of glucose (Glu) or 3-OMG was added during the last 6 h (ANOVA). (8E) PGC1a acetylation in gastrocnemius from 5 hours fasted mice using immunoprecipitation (IP) with anti-PGC1a (Millipore ST1202) and then immunoblotting (IB) with anti-PGC1a and anti-acetyl-lysine (CST #9441). IB of PGC1a is shown in input. Student's T-test, p value. Elucidation of signaling pathway leading to PARP1 regulation and NAD^+ bioavailability. The reduced PARP1 activity in T1R2-KO muscles correlates with substantial increases in NAD^+ levels (FIGS. 2C and 3B). STR belong to the Gq family of GPCRs and, in various tissues, activate phospholipase C (PLC)-mediated signaling cascades (9, 62) (FIG. 7). PARP1 is mainly regulated in response to DNA damage (63), but it was reasoned that a downstream effector(s) of PLC-dependent pathway may regulate PARP1 in skeletal muscle. […]

SIRT1 = target: T1, SIRT1 (Homo sapiens, UniProt Q96EB6); details: read-out: Km (affinity for NAD+); cited from earlier work
T1 sequence (Q96EB6 1-747): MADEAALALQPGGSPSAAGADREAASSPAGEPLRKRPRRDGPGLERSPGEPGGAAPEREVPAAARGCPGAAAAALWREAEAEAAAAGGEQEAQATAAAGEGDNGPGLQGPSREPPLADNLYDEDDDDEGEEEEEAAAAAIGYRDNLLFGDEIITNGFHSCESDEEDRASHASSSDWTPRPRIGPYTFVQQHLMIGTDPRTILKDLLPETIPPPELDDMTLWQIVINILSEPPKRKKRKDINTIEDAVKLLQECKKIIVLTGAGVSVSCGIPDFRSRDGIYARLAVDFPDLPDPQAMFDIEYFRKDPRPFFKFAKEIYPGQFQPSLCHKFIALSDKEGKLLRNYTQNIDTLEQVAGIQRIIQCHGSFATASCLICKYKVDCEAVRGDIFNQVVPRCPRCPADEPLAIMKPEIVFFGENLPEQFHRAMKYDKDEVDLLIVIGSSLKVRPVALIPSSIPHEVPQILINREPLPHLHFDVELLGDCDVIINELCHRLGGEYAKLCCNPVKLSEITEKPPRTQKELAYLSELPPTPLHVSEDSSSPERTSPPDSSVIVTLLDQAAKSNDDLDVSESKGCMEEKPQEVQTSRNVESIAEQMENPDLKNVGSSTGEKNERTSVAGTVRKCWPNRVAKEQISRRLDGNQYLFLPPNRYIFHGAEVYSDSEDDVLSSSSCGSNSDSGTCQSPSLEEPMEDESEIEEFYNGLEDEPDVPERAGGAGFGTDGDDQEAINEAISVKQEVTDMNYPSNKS

SIRT2 = target: T2, SIRT2 (Homo sapiens, UniProt Q8IXJ6); details: read-out: Km (affinity for NAD+); cited from earlier work
T2 sequence (Q8IXJ6 1-389): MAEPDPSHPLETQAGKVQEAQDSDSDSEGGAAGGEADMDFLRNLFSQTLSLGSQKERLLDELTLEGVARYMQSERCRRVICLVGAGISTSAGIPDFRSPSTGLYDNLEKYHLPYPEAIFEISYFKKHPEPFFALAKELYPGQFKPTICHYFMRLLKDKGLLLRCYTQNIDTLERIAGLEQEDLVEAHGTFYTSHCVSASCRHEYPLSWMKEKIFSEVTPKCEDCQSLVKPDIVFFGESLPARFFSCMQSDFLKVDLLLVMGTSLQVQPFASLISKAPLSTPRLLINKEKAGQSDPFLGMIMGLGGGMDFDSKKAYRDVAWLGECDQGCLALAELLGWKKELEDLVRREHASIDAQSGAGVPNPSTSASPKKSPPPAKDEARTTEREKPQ

muscle fibers = assay: Oxygen flux in permeabilized muscle fibers (high resolution respirometry); design: species or system mice; details: after malate+pyruvate and ADP, data not shown
Description: FIGS. 4A-4H show STRs regulate mitochondrial function and exercise capacity. (4A) Oxygen flux in muscle fibers in response to malate+pyruvate and ADP. […] (4B) Oxygen consumption rate (OCR) in differentiated myoblasts. Oligomycin (Comp V inhibition), FCCP (Carbonyl cyanide-4 (trifluoromethoxy) phenylhydrazone; uncoupler), rotenone (Comp I inhibition) (n=5/group). (4C) Quantitative analysis of lactate, ATP and ADP in gastrocnemius following 5-hours fasting (n=9-11/group). (4D) Succinate dehydrogenase staining in muscle sections. Arrows show SDH staining in gastrocnemius n=6/group). (4E) Immunoblotting of mitochondrial complex proteins with quantitation (n=6/group). (4F) Exercise endurance in mice at […] grade and 20 m/min (n=8/group). (4G) Oxygen consumption and (4H) respiratory exchange ratio (RER) under steady state conditions (plateaued values for at least 10 min) before exhaustion in mice subjected to a submaximal exercise bout as in (4F). Student's t-test, p value for (4B-4H).
ADPr is converted to PRPP, which can be used either for NAD^+ regeneration (salvage pathway), or for nucleotide synthesis (FIG. 2F), showing that ADPr can be a metabolic link between NAD^+ and purine/pyrimidine metabolism. Therefore, it was reasoned that the unprecedented depletion of ADPr in T1R2-KO muscles can be due to reduced NAD-consumption and/or increased PRPP utilization for nucleotide biosynthesis. […]

C2C12 cells = assay: NAD levels in differentiated C2C12 cells cultured at high or low glucose; assay type: cell-based; details: 20 mM added during the last 6 h to low-glucose (5 mM) cultured differentiated C2C12 cells, 54 h culture
Method: FIGS. 8A-8E show STR signaling involves ERK2 and SIRT1 activation. (8A) ERK1/2 phosphorylation in gastrocnemius from fed mice. Quantitation includes both ERK1 and ERK2 bands (n=6/group). (8B-8C) ERK2 phosphorylation in response to bilateral intramuscular injection of either sucralose or 3-OMG (right gastroc) or vehicle (left gastroc) in anesthetized mice after an overnight fast (n=8/group). (8D) NAD levels in C2C12 cells culture in high (black dots) or low (blue dots) glucose for 54 h. In select cells, equal molarity (20 mM) of glucose (Glu) or 3-OMG was added during the last 6 h (ANOVA). (8E) PGC1a acetylation in gastrocnemius from 5 hours fasted mice using immunoprecipitation (IP) with anti-PGC1a (Millipore ST1202) and then immunoblotting (IB) with anti-PGC1a and anti-acetyl-lysine (CST #9441). IB of PGC1a is shown in input. Student's T-test, p value. Determination of downstream effectors of NAD^+-SIRT axis. To shed light on the link between STR activation and NAD regulation, differentiated C2C12 cells were cultured at high (25 mM) or low (5 mM) glucose for 54 hours and observed an anticipated increase in NAD levels during the low-glucose condition (FIG. 8D) (18, 69). […] Thus, it appears that a STR-mediated regulation of NAD^+-SIRT axis is sufficient to account for key muscle adaptations in T1R2-KO mice. […]

Question: With `OC[C@H]1O[C@H](O[C@]2(CCl)O[C@H](CCl)[C@@H](O)[C@@H]2O)[C@H](O)[C@@H](O)[C@H]1Cl` [sucralose] as the compound, how does the ERK2 phosphorylation (ERK2 phosphorylation) read?
Answer: The ERK2 phosphorylation was “activated ERK2 phosphorylation in WT, but not in T1R2-KO muscles”.

Question: Which Km (SIRT1) does the source give for `NC(=O)c1ccc[n+]([C@@H]2O[C@H](COP(=O)([O-])OP(=O)(O)OC[C@H]3O[C@@H](n4cnc5c(N)ncnc54)[C@H](O)[C@@H]3O)[C@@H](O)[C@H]2O)c1` [NAD^+, Nicotinamide adenine dinucleotide] here?
Answer: Its Km is 95 µM.

Question: What about the Km (SIRT2) of the same compound?
Answer: Its Km is 83 µM.

Question: Which Oxygen flux (muscle fibers) does the source give for antimycin A here?
Answer: The Oxygen flux was “suppressed oxygen flux”.

Question: Which ERK2 phosphorylation (ERK2 phosphorylation) does the source give for `CO[C@@H]([C@H](O)[C@H](O)CO)[C@@H](O)C=O` [3-OMG, 3-O-methylglucose] here?
Answer: Its ERK2 phosphorylation is “activated ERK2 phosphorylation in WT, but not in T1R2-KO muscles”.

Question: What about the NAD levels (C2C12 cells) of the same compound?
Answer: Its NAD levels is “caused a significant drop in NAD, although to a lesser extent than 20 mM glucose”.
